Source: publication PMC6270398, “Synthesis and Promising in Vitro Antiproliferative Activity of Sulfones of a 5-Nitrothiazole Series” (Molecules, 2012)

Tests used:
[1] = test system: CHO cells; assay: In vitro cytotoxicity evaluation on CHO cell line (MTT method); type: cell-based; details: for CC50: Cricetulus griseus, 24 h incubation with product, mean ± SD of three independent experiments, read-out: Cancer cell toxicity CHO CC50
Method: (§1) The antiproliferative activity of the synthesized compounds was evaluated against two different cancer cell lines, CHO and HepG2, employing the MTT method and doxorubicin as a reference drug. The cytotoxic activity in vitro was expressed as CC50 (µM), the concentration of compound that inhibits proliferation of cells by 50% as compared to untreated cells.
(§2) CHO and HepG2 cell lines were maintained at 37 °C, 6% CO2, 14% O2, 80% N2, with 90% humidity in RPMI supplemented with 10% fœtal bovine serum, 1% L-glutamine (200 mM) and penicillin (100 U/mL) / streptomycin (100 µg/mL) (complete RPMI medium).
(§3) In vitro cytotoxicity evaluation on CHO and HepG2 cell lines was performed according to the method described by Mosmann with slight modifications. Briefly, 5 × 10^3 cells in 100 µL of culture medium (RPMI + […]) were inoculated into each well of 96-well plates and incubated at 37 °C in a humidified 6% CO2, 14% O2, 80% N2 atmosphere. After 24 h incubation, 100 µL of medium with various product concentrations was added and the plates were incubated from 24 h (CHO) to 72 h (HepG2). Duplicate assays were performed for each sample. At the end of the treatment and incubation, the medium was aspirated from the wells and 10 µL yellow MTT (3-(4,5-dimethyl-2-thiazolyl)-2,5-diphenyl-2H-tetrazolium bromide) solution (5 mg MTT/mL in PBS) was added to each well with 100 µL of medium without fœtal bovine serum. Cells were incubated for 2 h at 37 °C to allow MTT […] by mitochondrial dehydrogenase in the viable cells. After 2 h, the MTT solution was aspirated and DMSO (100 µL) was added to each well to dissolve the resulting blue formazan crystals. Plates were then shaken vigorously (300 rpm) for a few minutes. The absorbance was measured at 570 nm with 630 nm as reference wavelength, using a microplate spectrophotometer. DMSO was used as blank and doxorubicin as positive control.
(§4) Cell viability was calculated as percentage of control (cells incubated without compound). The 50% cytotoxic concentrations (CHO CC50 and HepG2 CC50) were determined by non-linear regression analysis processed on dose-response curves, using the Table Curve software 2D v.5.0. CC50 values represent the mean value calculated from three independent experiments.

[2] = test system: HepG2 cells; assay: In vitro cytotoxicity evaluation on HepG2 cell line (MTT method); type: cell-based, human; details: for antiproliferative activity on HepG2 cells (in words) / CC50: HepG2 cell line, MTT; for CC50: Homo sapiens, 72 h incubation with product, mean ± SD of three independent experiments, read-out: Cancer cell toxicity HepG2 CC50; for antiproliferative effect times higher toward the HepG2 than toward the CHO cell line: ratio CHO CC50 / HepG2 CC50
Method: as §1, §2, §3, §4

Row | SMILES | antiproliferative activity on CHO cells (in words) [1] | CC50 [1] [µM] | antiproliferative activity on HepG2 cells (in words) [2] | CC50 [2] [µM] | melting point [°C] | antiproliferative effect times higher toward the HepG2 than toward the CHO cell line [2] [times]
1 | Cc1nc(CS(C)(=O)=O)c([N+](=O)[O-])s1 [2j, 2-Methyl-4-(methylsulfonylmethyl)-5-nitro-1,3-thiazole] | no activity was observed | > 250 | no activity was observed | > 250 | 127 | –
2 | Cc1nc(CS(=O)(=O)c2ccc(Br)s2)c([N+](=O)[O-])s1 [2k, 4-[(5-Bromothiophen-2-ylsulfonyl)methyl]-2-methyl-5-nitro-1,3-thiazole] | – | 47.3 | – | 13.8 | – | –
3 | CCc1ccc(S(=O)(=O)Cc2nc(C)sc2[N+](=O)[O-])cc1 [2i, 4-[(4-Ethylphenylsulfonyl)methyl]-2-methyl-5-nitro-1,3-thiazole] | no activity was observed | > 500 | no activity was observed | 239 | – | –
4 | Cc1nc(C(Cl)(Cl)S(=O)(=O)c2ccc(Cl)cc2)c([N+](=O)[O-])s1 [3c, 4-[Dichloro(4-chlorophenylsulfonyl)methyl]-2-methyl-5-nitro-1,3-thiazole] | – | 1.4 | – | 1.1 | – | –
5 | COc1cccc2c1C(=O)c1c(O)c3c(c(O)c1C2=O)C[C@@](O)(C(=O)CO)C[C@@H]3O[C@H]1C[C@H](N)[C@H](O)[C@H](C)O1 [Doxorubicin, reference compound] | – | 0.6 | – | 0.2 | – | –
6 | Cc1nc(CS(=O)(=O)c2ccc3ccccc3c2)c([N+](=O)[O-])s1 [2l, 2-Methyl-4-[(naphtalen-2-ylsulfonyl)methyl]-5-nitro-1,3-thiazole] | – | 106 | – | 8.5 | 163 | –
7 | Cc1nc(CS(=O)(=O)c2ccc(Br)cc2)c([N+](=O)[O-])s1 [2d, 4-[(4-Bromophenylsulfonyl)methyl]-2-methyl-5-nitro-1,3-thiazole] | – | > 500 | – | 11.7 | – | 43
8 | Cc1nc(C(Cl)(Cl)S(=O)(=O)c2ccc(Br)cc2)c([N+](=O)[O-])s1 [3d, 4-[(4-Bromophenylsulfonyl)dichloromethyl]-2-methyl-5-nitro-1,3-thiazole] | – | 1.3 | – | 1.2 | 165 | –
9 | Cc1nc(C(Cl)(Cl)S(=O)(=O)c2ccc(F)cc2)c([N+](=O)[O-])s1 [3e, 4-[Dichloro(4-fluorophenylsulfonyl)methyl]-2-methyl-5-nitro-1,3-thiazole] | – | 1.3 | – | 1.2 | 145 | –
10 | Cc1nc(CS(=O)(=O)c2cccc(F)c2)c([N+](=O)[O-])s1 [2f, 4-[(3-Fluorophenylsulfonyl)methyl]-2-methyl-5-nitro-1,3-thiazole] | – | 321 | – | 23.6 | 154 | –
11 | Cc1nc(CS(=O)(=O)c2ccccc2)c([N+](=O)[O-])s1 [2a, 2-methyl-5-nitro-4-phenylsulfonylmethyl-1,3-thiazole] | – | 323 | – | 24.6 | – | –
12 | Cc1ccc(S(=O)(=O)Cc2nc(C)sc2[N+](=O)[O-])cc1 [2b, 2-Methyl-5-nitro-4-(tosylmethyl)-1,3-thiazole] | – | 237 | – | 7.7 | 179 | 31
13 | Cc1nc(CS(=O)(=O)c2cccc(C(F)(F)F)c2)c([N+](=O)[O-])s1 [2g, 2-Methyl-5-nitro-4-{[3-(trifluoromethyl)phenylsulfonyl]methyl}-1,3-thiazole] | – | 139 | – | 25.6 | 121 | –
14 | Cc1nc(CS(=O)(=O)c2ccc(F)cc2)c([N+](=O)[O-])s1 [2e, 4-[(4-Fluorophenylsulfonyl)methyl]-2-methyl-5-nitro-1,3-thiazole] | – | 229 | – | 19.3 | – | –
15 | Cc1nc(C(Cl)(Cl)S(=O)(=O)c2ccccc2)c([N+](=O)[O-])s1 [3a, 4-[Dichloro(phenylsulfonyl)methyl]-2-methyl-5-nitro-1,3-thiazole] | – | 2.5 | – | 1.2 | 169 | –
16 | COc1ccc(S(=O)(=O)Cc2nc(C)sc2[N+](=O)[O-])cc1 [2h, 4-[(4-Methoxyphenylsulfonyl)methyl]-2-methyl-5-nitro-1,3-thiazole] | – | 137 | – | 20.6 | – | –
17 | Cc1nc(CS(=O)(=O)c2ccc(Cl)cc2)c([N+](=O)[O-])s1 [2c, 4-[(4-Chlorophenylsulfonyl)methyl]-2-methyl-5-nitro-1,3-thiazole] | – | > 62.5 | – | 13.4 | 180 | –
18 | Cc1ccc(S(=O)(=O)C(Cl)(Cl)c2nc(C)sc2[N+](=O)[O-])cc1 [3b, 4-[Dichloro(tosyl)methyl]-2-methyl-5-nitro-1,3-thiazole] | – | 1.2 | – | 1 | – | –
